molecular target: human RIP1 kinase domain (2-375) (Homo sapiens (Human), UniProt Q13546); test: RIP1 kinase inhibition biochemical assay (Transcreener ADP, fluorescence polarization); conditions: Ki app from tight-binding Morrison equation; 50 nM enzyme, 50 uM ATP, 2 hours incubation
In short: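 Baculovirus-expressed human RIP1 kinase domain (2-375), 50 nM, incubated 2 h with compounds in pH 7.5 Hepes, 30 mM MgCl2, 50 uM ATP, 0.5% DMSO. ADP detected by Transcreener fluorescence-polarization tracer displacement; Ki^app from Morrison tight-binding fit.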

Chain of human RIP1 kinase domain (2-375) (Q13546 2-375): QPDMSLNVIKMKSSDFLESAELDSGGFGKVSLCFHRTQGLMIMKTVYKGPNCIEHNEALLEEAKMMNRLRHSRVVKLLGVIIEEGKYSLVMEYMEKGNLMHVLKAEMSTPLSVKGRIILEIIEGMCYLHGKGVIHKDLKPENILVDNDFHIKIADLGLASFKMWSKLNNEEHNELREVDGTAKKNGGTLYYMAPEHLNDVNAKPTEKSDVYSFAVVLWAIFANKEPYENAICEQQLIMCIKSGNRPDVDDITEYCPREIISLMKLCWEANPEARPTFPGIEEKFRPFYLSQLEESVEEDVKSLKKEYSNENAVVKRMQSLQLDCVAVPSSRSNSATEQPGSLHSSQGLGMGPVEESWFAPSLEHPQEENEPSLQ

Compared with CC1(S(=O)(=O)c2nc3n(n2)[C@H](c2ccccc2)C[C@@H]3F)CC1(F)F (stereo partly drawn) [Example 167, (5S,7S)-2-((2,2-difluoro-1-methylcyclopropyl)sulfonyl)-7-fluoro-5-phenyl-6,7-dihydro-5H-pyrrolo[1,2-b][1,2,4]triazole], CC1(S(=O)(=O)c2nc3n(n2)[C@H](c2ccccc2)C[C@@H]3F)CC1 (single isomer, unassigned) [Example 150] is 1.8-fold higher in Ki: 0.012 µM for the first, 0.021 µM for the second.

Going from CC(C)(F)S(=O)(=O)c1nc2n(n1)[C@H](c1ccccc1)C[C@@H]2F (single isomer, unassigned) [Example 165] to CC(C)(C#N)S(=O)(=O)c1nc2n(n1)[C@H](c1ccccc1)C[C@@H]2F (single isomer, unassigned) [Example 104], the Ki falls from 0.025 µM to 0.014 µM (1.8-fold). The second binds more tightly here.

Going from N#CC[S@+]([O-])c1nc2n(n1)[C@H](c1cccc(F)c1)C[C@@H]2F (single isomer, unassigned) [Example 97] to N#CC[S@@+]([O-])c1nc2n(n1)[C@H](c1ccccc1Cl)C[C@@H]2F (single isomer, unassigned) [Example 94], the Ki falls from 0.19 µM to 0.004 µM (48-fold). The second binds more tightly here.

[O-][S@@+](c1nc2n(n1)[C@H](c1ccccc1F)C[C@@H]2F)C(F)F (single isomer, unassigned) [Example 51] and [O-][S@+](CF)c1nc2n(n1)[C@H](c1ccccc1F)C[C@@H]2F (single isomer, unassigned) [Example 75] are the same in Ki: 0.14 µM for the first, 0.14 µM for the second.

First: [O-][S+](c1nc2n(n1)[C@H](c1ccccc1)C[C@@H]2F)C1CC1(F)F (stereo partly drawn) [Example 117, (5S,7S)-2-((2,2-difluorocyclopropyl)sulfinyl)-7-fluoro-5-phenyl-6,7-dihydro-5H-pyrrolo[1,2-b][1,2,4]triazole]
Second: [O-][S@+](c1nc2n(n1)[C@H](c1ccccc1)C[C@@H]2F)C(F)F [Example 22, (5S,7S)-2-[(R)-difluoromethylsulfinyl]-7-fluoro-5-phenyl-6,7-dihydro-5H-pyrrolo[1,2-b][1,2,4]triazole]
The Ki of the first is 4-fold higher: 0.012 µM for the first, 0.003 µM for the second. The second binds more tightly here.

Going from O=S(=O)(c1nc2n(n1)[C@H](c1ccccc1)C[C@@H]2F)[C@H]1C[C@@H](CF)C1 (single isomer, unassigned) [Example 169] to O=S(=O)(c1nc2n(n1)[C@H](c1ccccc1)C[C@@H]2F)[C@H]1C[C@H](F)C1 (single isomer, unassigned) [Example 164], the Ki falls from 0.052 µM to under 0.005 µM.

N#CC1CC1S(=O)(=O)c1nc2n(n1)[C@H](c1ccccc1)C[C@@H]2F (stereo in doubt) [Example 222, (1R,2R)-2-[[(5S,7S)-7-fluoro-5-phenyl-6,7-dihydro-5H-pyrrolo[1,2-b][1,2,4]triazol-2-yl]sulfonyl]cyclopropanecarbonitrile] and N#C[C@H]1C[C@@H](S(=O)(=O)c2nc3n(n2)[C@H](c2ccccc2)C[C@@H]3F)C1 [Example 210, Cis-3-[[(5S,7S)-7-fluoro-5-phenyl-6,7-dihydro-5H-pyrrolo[1,2-b][1,2,4]triazol-2-yl]sulfonyl]cyclobutanecarbonitrile] are within 1.5-fold of each other in Ki: 0.061 µM for the first, 0.055 µM for the second.

First: O=S(=O)(c1nc2n(n1)[C@H](c1ccccc1)C[C@@H]2F)C1CC(F)(F)C1 (single isomer, unassigned) [Example 50]
Second: O=S(=O)(c1nc2n(n1)[C@H](c1ccccc1)C[C@@H]2F)C1COC1 (single isomer, unassigned) [Example 228]
The Ki of the first is 2.8-fold higher: 0.017 µM for the first, 0.006 µM for the second. The second binds more tightly here.

Going from O=S(=O)(c1nc2n(n1)[C@H](c1cccc(Cl)c1F)C[C@@H]2F)C1CC1 (single isomer, unassigned) [Example 46] to O=S(=O)(c1nc2n(n1)[C@H](c1cccc(F)c1Cl)C[C@@H]2F)C1CC1 (single isomer, unassigned) [Example 45], the Ki falls from 0.02 µM to under 0.005 µM.

Compared with CCS(=O)(=O)c1nc2n(n1)[C@H](c1ccccc1)C[C@@H]2F (single isomer, unassigned) [Example 108], CCCS(=O)(=O)c1nc2n(n1)[C@H](c1ccccc1)C[C@@H]2F (single isomer, unassigned) [Example 161] is 2.4-fold higher in Ki: 0.011 µM for the first, 0.026 µM for the second. The first binds more tightly here.

First: [O-][S+](c1nc2n(n1)C(c1ccccc1)CC2)C(F)F (stereo not drawn) [Example 1, 2-(difluoromethylsulfinyl)-5-phenyl-6,7-dihydro-5H-pyrrolo[1,2-b][1,2,4]triazole]
Second: [O-][S+](c1nc2n(n1)C(c1ccccc1)CC2)C(F)(F)F (stereo not drawn) [Example 10, 5-phenyl-2-(trifluoromethylsulfinyl)-6,7-dihydro-5H-pyrrolo[1,2-b][1,2,4]triazole]
The Ki of the first is 1.5-fold lower: 0.058 µM for the first, 0.089 µM for the second. The first binds more tightly here.

O=S(=O)(c1nc2n(n1)[C@H](c1ccccc1Cl)C[C@@H]2F)C(F)(F)F (single isomer, unassigned) [Example 134] and O=S(=O)(c1nc2n(n1)[C@H](c1ccccc1Cl)C[C@@H]2F)[C@@H]1CC1(F)F (single isomer, unassigned) [Example 125] cannot be ordered by Ki: 0.003 µM for the first, under 0.005 µM for the second.

O=S(=O)(c1nc2n(n1)[C@H](c1ccccc1)C[C@@H]2F)C1(C(F)F)CC1 (single isomer, unassigned) [Example 155] and O=S(=O)(c1nc2n(n1)[C@H](c1ccccc1)C[C@@H]2F)[C@H]1C[C@H](OC(F)F)C1 [Example 213, (5S,7S)-2-trans-[3-(difluoromethoxy)cyclobutyl]sulfonyl-7-fluoro-5-phenyl-6,7-dihydro-5H-pyrrolo[1,2-b][1,2,4]triazole] are within 1.5-fold of each other in Ki: 0.0048 µM for the first, 0.006 µM for the second.

Going from CC(C)[S@@+]([O-])c1nc2n(n1)[C@H](c1ccccc1)C[C@@H]2F (single isomer, unassigned) [Example 187] to [O-][S+](c1nc2n(n1)[C@H](c1ccccc1)C[C@@H]2F)C(F)F (mixture of isomers) [Example 13, Rac-(5S,7S)-2-((difluoromethyl)sulfinyl)-7-fluoro-5-phenyl-6,7-dihydro-5H-pyrrolo[1,2-b][1,2,4]triazole], the Ki rises from 0.008 µM to 0.042 µM (5.2-fold). The first binds more tightly here.

Going from O=S(=O)(c1nc2n(n1)[C@H](c1cccc(F)c1)C[C@@H]2F)[C@@H]1C[C@H]1F (single isomer, unassigned) [Example 142] to O=S(=O)(c1nc2n(n1)[C@H](c1cc(Cl)ccc1F)C[C@@H]2F)C1CC1F (stereo in doubt) [Example 207, (5S,7S)-5-(5-chloro-2-fluoro-phenyl)-7-fluoro-2-[(1S,2S)-2-fluorocyclopropyl]sulfonyl-6,7-dihydro-5H-pyrrolo[1,2-b][1,2,4]triazole], the Ki rises from under 0.005 µM to 0.037 µM.

Going from O=S(=O)(c1nc2n(n1)[C@H](c1ccccc1Cl)C[C@@H]2F)C1CC1 (single isomer, unassigned) [Example 32] to O=S(=O)(c1nc2n(n1)[C@H](c1cccc(Cl)c1)C[C@@H]2F)C1CC1 [Example 203, (5S,7S)-5-(3-chlorophenyl)-2-cyclopropylsulfonyl-7-fluoro-6,7-dihydro-5H-pyrrolo[1,2-b][1,2,4]triazole], the Ki rises from 0.003 µM to 0.039 µM (13-fold).

Going from [O-][S+](c1nc2n(n1)[C@H](c1cc(F)cc(F)c1)CC2)C(F)F (stereo in doubt) [Example 173, (5S)-2-[(S)-difluoromethylsulfinyl]-5-(3,5-difluorophenyl)-6,7-dihydro-5H-pyrrolo[1,2-b][1,2,4]triazole] to [O-][S@+](CF)c1nc2n(n1)[C@H](c1cc(F)cc(F)c1)C[C@@H]2F (single isomer, unassigned) [Example 85], the Ki rises from 0.019 µM to 0.18 µM (9.5-fold).

Going from O=S(=O)(c1nc2n(n1)[C@H](c1c(F)cccc1F)C[C@@H]2F)C(F)(F)F (single isomer, unassigned) [Example 139] to O=S(=O)(c1nc2n(n1)[C@H](c1c(F)cccc1F)C[C@@H]2F)C(F)F (single isomer, unassigned) [Example 58], the Ki rises from 0.005 µM to 0.034 µM (6.8-fold).

First: O=S(=O)(c1nc2n(n1)C(c1ccccc1)CC2)C(F)(F)c1ccccc1 (racemic) [Example 4, 2-[difluoro(phenyl)methyl]sulfonyl-5-phenyl-6,7-dihydro-5H-pyrrolo[1,2-b][1,2,4]triazole]
Second: O=S(=O)(c1nc2n(n1)[C@H](c1ccccc1Cl)CC2)C(F)F [Example 16, (5S)-5-(2-chlorophenyl)-2-(difluoromethylsulfonyl)-6,7-dihydro-5H-pyrrolo[1,2-b][1,2,4]triazole]
The Ki of the first is 2.7-fold higher: 0.152 µM for the first, 0.056 µM for the second.

First: N#CC[S@+]([O-])c1cc2n(n1)[C@H](c1ccccc1)C[C@@H]2F (single isomer, unassigned) [Example 92]
Second: [O-][S@+](CF)c1nc2n(n1)[C@H](c1ccccc1)C[C@@H]2F [Example 71]
The Ki of the first is 4.7-fold lower: 0.019 µM for the first, 0.09 µM for the second.

First: O=S(=O)(c1nc2n(n1)[C@H](c1ccccc1)C[C@@H]2F)[C@H]1C[C@@H](O)C1 (single isomer, unassigned) [Example 225]
Second: O=S(=O)(c1nc2n(n1)[C@H](c1ccc(F)cc1)C[C@@H]2F)C1CC1 (single isomer, unassigned) [Example 34]
The Ki of the first is 30-fold higher: 0.3 µM for the first, 0.01 µM for the second. The second binds more tightly here.

Going from [O-][S+](c1nc2n(n1)[C@H](c1ccccc1)C[C@@H]2F)C(F)(F)F (stereo partly drawn) [Example 132, (5S,7S)-7-fluoro-5-phenyl-2-(trifluoromethylsulfinyl)-6,7-dihydro-5H-pyrrolo[1,2-b][1,2,4]triazole] to [O-][S@+](CF)c1nc2n(n1)[C@H](c1c(F)cccc1F)C[C@@H]2F (single isomer, unassigned) [Example 81], the Ki rises from 0.011 µM to 0.29 µM (26-fold).

Going from O=S(=O)(c1nc2n(n1)[C@H](c1ccc(F)cc1)C[C@@H]2F)C(F)F (single isomer, unassigned) [Example 56] to O=S(=O)(c1nc2n(n1)[C@H](c1cccc(Cl)c1F)C[C@@H]2F)C(F)F (single isomer, unassigned) [Example 65], the Ki falls from 0.055 µM to 0.018 µM (3.1-fold).

Compared with O=S(=O)(c1nc2n(n1)[C@H](c1cc(F)cc(F)c1F)C[C@@H]2F)C(F)F (single isomer, unassigned) [Example 60], O=S(=O)(c1nc2n(n1)[C@H](c1cc(Cl)ccc1F)C[C@@H]2F)C1CC1F (stereo in doubt) [Example 218, (5S,7S)-5-(5-chloro-2-fluoro-phenyl)-7-fluoro-2-[(1R,2R)-2-fluorocyclopropyl]sulfonyl-6,7-dihydro-5H-pyrrolo[1,2-b][1,2,4]triazole] is 20-fold higher in Ki: 0.007 µM for the first, 0.14 µM for the second.

Source: US11072617B2, “Bicyclic sulfones and sulfoxides and methods of use thereof” (Genentech, Inc., priority 2017, dated 2021)
